Reference: US10597388B2, “Pyridazinone herbicides” (FMC CORPORATION, priority 2014, dated 2020)

Assays:
Type in all cases: in vivo
[1] = tested on: oat, wild (wild oat, Avena fatua); test: Test C greenhouse herbicide test, postemergence
In short: (§1)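 Plants grown in potting mix of peat moss, vermiculite, wetting agent and starter nutrients were sprayed postemergence at 2 to 18 cm height (1- to 4-leaf stage). After 13 to 15 d in the greenhouse, injury was visually rated against untreated controls on a 0–100 scale (0 no effect, 100 complete control).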

[2] = tested on: kochia (Kochia scoparia); test: Test C greenhouse herbicide test, postemergence
In short: as §1

[3] = tested on: ragweed (common ragweed, Ambrosia elatior); test: Test C greenhouse herbicide test, pre- and postemergence
In short: (§2)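 Seeds sown in loam–sand blend treated preemergence; plants in peat-based medium sprayed postemergence at 2–18 cm (1- to 4-leaf stage); chemicals in non-phytotoxic solvent with surfactant. Greenhouse 13–15 d, then visual rating versus controls on 0–100 scale (0 no effect, 100 complete control).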

[4] = tested on: galium (catchweed bedstraw, Galium aparine); test: as above
In short: as §2

[5] = tested on: velvetleaf (Abutilon theophrasti); test: as above
In short: as §2

[6] = tested on: foxtail, giant (giant foxtail, Setaria faberii); test: as above
In short: as §2

[7] = tested on: crabgrass, large (large crabgrass, Digitaria sanguinalis); test: as above
In short: as §2

[8] = tested on: wheat (winter wheat, Triticum aestivum); test: as above
In short: as §2

[9] = tested on: blackgrass (Alopecurus myosuroides); test: as above
In short: as §2

[10] = tested on: soybean (Glycine max); test: as above
In short: as §2

[11] = tested on: pigweed (Amaranthus retroflexus); test: as above
In short: as §2

[12] = tested on: corn (Zea mays); test: as above
In short: as §2

[13] = tested on: morningglory (Ipomoea coccinea); test: as above
In short: as §2

[14] = tested on: johnsongrass (Sorghum halepense); test: as above
In short: as §2

[15] = tested on: oilseed rape (Brassica napus); test: as above
In short: as §2

[16] = tested on: waterhemp (common waterhemp, Amaranthus rudis); test: as above
In short: as §2

[17] = tested on: barnyardgrass (Echinochloa crus-galli); test: as above
In short: as §2

[18] = Postemergence, 31 g ai/ha, scale 0 to 100 (0 no effect, 100 complete control)
[19] = Postemergence, 62 g ai/ha, 0 to 100 scale (0 no effect, 100 complete control)
[20] = Postemergence, 250 g ai/ha, scale 0 to 100, 0 no effect, 100 complete control, 13 to 15 d
[21] = postemergence, 125 g ai/ha, scale 0 to 100, 0 no effect, 100 complete control
[22] = Preemergence, 31 g ai/ha, scale 0 to 100, 0 is no effect, 100 is complete control
[23] = Preemergence, 62 g ai/ha, scale 0 to 100, 0 is no effect, 100 is complete control
[24] = Preemergence, 125 g ai/ha, scale 0 to 100, 0 is no effect, 100 is complete control
[25] = Preemergence, 250 g ai/ha, scale 0 to 100 (0 no effect, 100 complete control)

SMILES: CCC(=O)Oc1c(C)nn(C)c(=O)c1-c1ccc(Br)c2ccccc12 [Compound 133]
- Plant response rating, Oat, Wild [1, 18]: 90
- Oat, Wild plant response rating [1, 19]: 90
- Plant response rating, Oat, Wild [1, 20]: 95
- Oat, Wild plant response rating [1, 21]: 95
- Plant response rating, Kochia [2, 18]: 98
- Kochia plant response rating [2, 19]: 100
- Plant response rating, Kochia [2, 20]: 100
- Kochia plant response rating [2, 21]: 100
- Plant response rating, Ragweed [3, 18]: 0
- Ragweed plant response rating [3, 19]: 0
- Plant response rating, Ragweed [3, 20]: 5
- Plant response rating, Ragweed [3, 22]: 70
- Plant response rating, Ragweed [3, 23]: 75
- Plant response rating, Ragweed [3, 24]: 95
- Ragweed plant response rating [3, 25]: 98
- Ragweed plant response rating [3, 21]: 5
- Plant response rating, Galium [4, 18]: 90
- Galium plant response rating [4, 19]: 95
- Plant response rating, Galium [4, 20]: 100
- Plant response rating, Galium [4, 22]: 95
- Plant response rating, Galium [4, 23]: 95
- Plant response rating, Galium [4, 24]: 100
- Galium plant response rating [4, 25]: 100
- Galium plant response rating [4, 21]: 98
- Plant response rating, Velvetleaf [5, 18]: 85
- Velvetleaf plant response rating [5, 19]: 90
- Plant response rating, Velvetleaf [5, 20]: 100
- Plant response rating, Velvetleaf [5, 22]: 55
- Plant response rating, Velvetleaf [5, 23]: 90
- Plant response rating, Velvetleaf [5, 24]: 90
- Velvetleaf plant response rating [5, 25]: 100
- Velvetleaf plant response rating [5, 21]: 100
- Plant response rating, Foxtail, Giant [6, 18]: 25
- Foxtail, Giant plant response rating [6, 19]: 25
- Plant response rating, Foxtail, Giant [6, 20]: 55
- Plant response rating, Foxtail, Giant [6, 22]: 30
- Plant response rating, Foxtail, Giant [6, 23]: 65
- Plant response rating, Foxtail, Giant [6, 24]: 75
- Foxtail, Giant plant response rating [6, 25]: 90
- Foxtail, Giant plant response rating [6, 21]: 40
- Plant response rating, Crabgrass, Large [7, 18]: 0
- Crabgrass, Large plant response rating [7, 19]: 5
- Plant response rating, Crabgrass, Large [7, 20]: 20
- Plant response rating, Crabgrass, Large [7, 22]: 0
- Plant response rating, Crabgrass, Large [7, 23]: 30
- Plant response rating, Crabgrass, Large [7, 24]: 35
- Crabgrass, Large plant response rating [7, 25]: 65
- Crabgrass, Large plant response rating [7, 21]: 5
- Plant response rating, Wheat [8, 18]: 25
- Wheat plant response rating [8, 19]: 35
- Plant response rating, Wheat [8, 20]: 80
- Plant response rating, Wheat [8, 22]: 0
- Plant response rating, Wheat [8, 23]: 0
- Plant response rating, Wheat [8, 24]: 10
- Wheat plant response rating [8, 25]: 40
- Wheat plant response rating [8, 21]: 55
- Plant response rating, Blackgrass [9, 18]: 45
- Blackgrass plant response rating [9, 19]: 35
- Plant response rating, Blackgrass [9, 20]: 30
- Plant response rating, Blackgrass [9, 22]: 30
- Plant response rating, Blackgrass [9, 23]: 60
- Plant response rating, Blackgrass [9, 24]: 50
- Blackgrass plant response rating [9, 25]: 50
- Blackgrass plant response rating [9, 21]: 70
- Plant response rating, Soybean [10, 18]: 55
- Soybean plant response rating [10, 19]: 40
- Plant response rating, Soybean [10, 20]: 40
- Plant response rating, Soybean [10, 22]: 5
- Plant response rating, Soybean [10, 23]: 55
- Plant response rating, Soybean [10, 24]: 65
- Soybean plant response rating [10, 25]: 80
- Soybean plant response rating [10, 21]: 75
- Plant response rating, Pigweed [11, 18]: 80
- Pigweed plant response rating [11, 19]: 98
- Plant response rating, Pigweed [11, 20]: 95
- Plant response rating, Pigweed [11, 22]: 100
- Plant response rating, Pigweed [11, 23]: 100
- Plant response rating, Pigweed [11, 24]: 100
- Pigweed plant response rating [11, 25]: 100
- Pigweed plant response rating [11, 21]: 100
- Plant response rating, Corn [12, 18]: 5
- Corn plant response rating [12, 19]: 5
- Plant response rating, Corn [12, 20]: 5
- Plant response rating, Corn [12, 22]: 5
- Plant response rating, Corn [12, 23]: 5
- Plant response rating, Corn [12, 24]: 10
- Corn plant response rating [12, 25]: 10
- Corn plant response rating [12, 21]: 5
- Plant response rating, Morningglory [13, 18]: 100
- Morningglory plant response rating [13, 19]: 100
- Plant response rating, Morningglory [13, 20]: 95
- Plant response rating, Morningglory [13, 22]: 45
- Plant response rating, Morningglory [13, 23]: 85
- Plant response rating, Morningglory [13, 24]: 90
- Morningglory plant response rating [13, 25]: 95
- Morningglory plant response rating [13, 21]: 100
- Plant response rating, Johnsongrass [14, 18]: 5
- Johnsongrass plant response rating [14, 19]: 10
- Plant response rating, Johnsongrass [14, 20]: 10
- Plant response rating, Johnsongrass [14, 22]: 5
- Plant response rating, Johnsongrass [14, 23]: 35
- Plant response rating, Johnsongrass [14, 24]: 30
- Johnsongrass plant response rating [14, 25]: 40
- Johnsongrass plant response rating [14, 21]: 20
- Plant response rating, Oilseed Rape [15, 18]: 95
- Oilseed Rape plant response rating [15, 19]: 98
- Plant response rating, Oilseed Rape [15, 20]: 98
- Plant response rating, Oilseed Rape [15, 22]: 5
- Plant response rating, Oilseed Rape [15, 23]: 85
- Plant response rating, Oilseed Rape [15, 24]: 90
- Oilseed Rape plant response rating [15, 25]: 90
- Oilseed Rape plant response rating [15, 21]: 98
- Plant response rating, Waterhemp [16, 18]: 95
- Waterhemp plant response rating [16, 19]: 100
- Plant response rating, Waterhemp [16, 20]: 100
- Plant response rating, Waterhemp [16, 22]: 80
- Plant response rating, Waterhemp [16, 23]: 100
- Plant response rating, Waterhemp [16, 24]: 95
- Waterhemp plant response rating [16, 25]: 100
- Waterhemp plant response rating [16, 21]: 100
- Plant response rating, Barnyardgrass [17, 18]: 15
- Barnyardgrass plant response rating [17, 19]: 30
- Plant response rating, Barnyardgrass ([17]; Postemergence, 125 g ai/ha, scale 0 to 100, 0 is no effect, 100 is complete control): 45
- Plant response rating, Barnyardgrass [17, 20]: 35
- Plant response rating, Barnyardgrass [17, 22]: 0
- Plant response rating, Barnyardgrass [17, 23]: 40
- Plant response rating, Barnyardgrass [17, 24]: 50
- Barnyardgrass plant response rating [17, 25]: 95
